pIC50: −log10 of the molar value. Where two headings read alike, the source gives them in different places.
Tests used:
[1] = biological target: T1, His6-BRD4 (BD1) (Homo sapiens, UniProt O60885); assay: Surface plasmon resonance (SPR) single-dose screening; type: binding; parameters: key to SPR RESULT: Positive: compounds were considered as SPR hits also when their average signal was further than two standard deviations apart from the average signal of the blank samples (1% DMSO); conditions: for RUs at [10 µM]: SPR, compound 10 µM, 1% DMSO, n = 2, decimal comma; for SPR RESULT: single dose 10 µM, n = 2
T1 construct: A pET28 plasmid containing residues 44–168 of BRD4 (BD1), a 6xHis tag, a TEV protease cleavage site; made in house; host or cells: E. coli Rosetta (D3)

[2] = biological target: T2, BRD4 (BD1) (Homo sapiens, UniProt O60885); assay: Differential scanning fluorimetry (DSF) single-dose thermal shift screening; type: binding; conditions: DSF, compound 10 µM, BRD4 (BD1) 2 µM, n = 3, decimal comma; for ΔTm at 10 µM: read-out: ΔTm ºC at [10 µM]
T2 construct: A pET28 plasmid containing residues 44–168 of BRD4 (BD1), a 6xHis tag, a TEV protease cleavage site; 6xHis (N, cleaved yes); made in house; host or cells: E. coli Rosetta (D3)

[3] = biological target: T2, BRD4 (BD1); assay: Competitive HTRF TR-FRET binding assay (displacement of acetylated histone H4 peptide)
[4] = 16-point titration 0.1 nM to 10 µM, n = 2, Negative = curve could not be fitted to a sigmoidal curve, read-out: TR-FRET IC50
[5] = 16-point titration 0.1 nM to 10 µM, n = 2, Negative = curve could not be fitted to a sigmoidal curve

Structure (SMILES)	RUs at [10 µM] [1]	SPR RESULT [1]	ΔTm at 10 µM [2]	pIC50 [3, 4]	ΔTm ºC at [10 µM] [2]	pIC50 [3]	TR-FRET IC50 (nM) [3, 5]	IC50 by HTRF TR-FRET, range in words ([3]; potency range or dose-response behaviour)
CN(C)C(=O)Sc1cc(NC(=O)c2cn(C)c(=O)c3ccccc23)ccc1Cl [Compound 53, CN(C)C(=O)SC=1C=C(NC(=O)C2=CN(C)C(=O)C=3C=CC=CC23)C=CC1Cl]	28,62 ± 5,34 RUs	Positive	1.09 °C	5.98	–	–	–	–
CCCc1c(C(=O)N2CCC(Cc3cn(C4CC4)nn3)CC2)[nH]c(C)c1C(C)=O [Compound 54, CCCC1=C(NC(C)=C1C(=O)C)C(=O)N2CCC(CC3=CN(N=N3)C4CC4)CC2]	17,03 ± 5,1 RUs	Negative	2.91 °C	6.56	–	–	–	–
COc1ccc(-n2c(C)nnc2SCC(=O)Nc2ccc(C)c(Cl)c2Cl)cc1 [Compound 55, COC=1C=CC(=CC1)N2C(C)=NN=C2SCC(=O)NC=3C=CC(C)=C(Cl)C3Cl]	11,56 ± 1,14 RUs	Positive	–	–	3,66 ± 0,12 ºC	5.99	–	–
CCn1nnc2cc(C(=O)N3CCC(c4nnc(CNC(=O)c5ccncn5)s4)CC3)ccc21 [Compound 56, CCN1N=NC=2C=C(C=CC12)C(=O)N3CCC(CC3)C4=NN=C(CNC(=O)C=5C=CN=CN5)S4]	10,07 ± 8,75 RUs	Negative	3.79 °C	6.14	–	–	–	–
COC1(CNC(=O)C2=C(Cl)CCCC2)CCN(C(=O)c2sc3nnc(C)c(C)c3c2N)CC1 [Compound 57, COC1(CNC(=O)C2=C(Cl)CCCC2)CCN(CC1)C(=O)C=3SC=4N=NC(C)=C(C)C4C3N]	26,22 ± 6,56 RUs	Positive	0.48 °C	–	–	–	Negative	–
COc1cccc(-n2nc(-c3cscn3)nc2-c2cn(C)c(=O)c3ccccc23)c1 [Compound 58, COC=1C=CC=C(C1)N2N=C(N=C2C3=CN(C)C(=O)C=4C=CC=CC34)C5=CSC=N5]	75,54 ± 39,86 RUs	Negative	2.28 °C	6.29	–	–	–	–
Cc1nnc2sc(C(=O)N(C)C3CN(C(=O)CCC(C)N(C)C)CC34CC4)c(N)c2c1C (centres unmarked) [Compound 59, CC(CCC(=O)N1CC(N(C)C(=O)C=2SC=3N=NC(C)=C(C)C3C2N)C4(CC4)C1)N(C)C]	13,73 ± 9,32 RUs	Negative	4.12 °C	–	–	–	Negative	–
Cc1nnc2sc(C(=O)N3CCC4(CCC(NC(=O)Cc5csc(Cl)c5)CC4)CC3)c(N)c2c1C [Compound 60, CC=1N=NC=2SC(C(=O)N3CCC4(CCC(CC4)NC(=O)CC5=CSC(Cl)=C5)CC3)=C(N)C2C1C]	48,37 ± 15,77 RUs	Positive	0.94 °C	–	–	–	Negative	–
CCCc1c(C(=O)N2CCCC2Cn2cc(-c3cc(C)nc(C)c3)nn2)[nH]c(C)c1C(C)=O (centres unmarked) [Compound 61, CCCC1=C(NC(C)=C1C(=O)C)C(=O)N2CCCC2CN3C=C(N=N3)C=4C=C(C)N=C(C)C4]	15,14 ± 5,89 RUs	Negative	0.49 °C	7.10	–	–	–	–
COC1CC(CCC(=O)NC2CC3(CCN(C(=O)c4occc4Br)C3)Oc3ccccc32)C1 (centres unmarked) [Compound 62, COC1CC(CCC(=O)NC2CC3(CCN(C3)C(=O)C=4OC=CC4Br)OC=5C=CC=CC25)C1]	23,54 ± 4,84 RUs	Positive	-0.15 °C	–	–	–	Negative	–
COC1(CNC(=O)c2nscc2Br)CN(C(=O)C2CCS(=O)(=O)N2)C1 (centres unmarked) [Compound 63, COC1(CNC(=O)C2=NSC=C2Br)CN(C1)C(=O)C3CCS(=O)(=O)N3]	13,51 ± 3,27 RUs	Negative	0.7 °C	–	–	–	Negative	–
Cc1cc(C)n2nc(CC(=O)NCC(C)(C)Cn3cc(-c4sccc4C)nn3)nc2n1 [Compound 64, CC=1C=CSC1C2=CN(CC(C)(C)CNC(=O)CC=3N=C4N=C(C)C=C(C)N4N3)N=N2]	25,91 ± 0,65 RUs	Positive	0.1 °C	–	–	–	Negative	–
CNC(=O)C1(C(=O)N[C@@H]2CCCC[C@H]2NC(=O)c2cnsn2)CCC1 [Compound 65, CNC(=O)C1(CCC1)C(=O)N[C@@H]2CCCC[C@H]2NC(=O)C=3C=NSN3]	7,82 ± 0,92 RUs	Negative	0.32 °C	7.54	–	–	–	–
COc1cccnc1C(=O)N1CCC2(CC(NC(=O)c3occc3Br)c3ccccc3O2)C1 (centres unmarked) [Compound 66, COC=1C=CC=NC1C(=O)N2CCC3(C2)CC(NC(=O)C=4OC=CC4Br)C=5C=CC=CC5O3]	20,41 ± 1,87 RUs	Positive	0.83 °C	6.87	–	–	–	–
Cc1cc(C)n2c(CNc3ccc(C)c(NC(=O)CN4CCCCC4)c3)cnc2n1 [Compound 67, CC=1C=C(C)N2C(CNC=3C=CC(C)=C(NC(=O)CN4CCCCC4)C3)=CN=C2N1]	28,42 ± 2,09 RUs	Positive	0.81 °C	8.43	–	–	–	low nM
CC(=O)c1ccc(N2CCN(C(=O)Nc3nnc(C)s3)CC2)c(F)c1 [Compound 69, CC(=O)C=1C=CC(N2CCN(CC2)C(=O)NC3=NN=C(C)S3)=C(F)C1]	23,49 ± 1,0 RUs	Positive	0.61 °C	–	–	–	Negative	–
COc1ccc(C=C(CC(=O)Nc2nnc(C)s2)c2nc3ccccc3s2)cc1OC [Compound 70, COC=1C=CC(C=C(CC(=O)NC2=NN=C(C)S2)C3=NC=4C=CC=CC4S3)=CC1OC]	21,72 ± 4,06 RUs	Positive	0.65 °C	6.91	–	–	–	–
Cc1cc(C)n2nc(NC(=O)NCCOC3(C)CCOCC3)nc2n1 [Compound 71, CC=1C=C(C)N2N=C(NC(=O)NCCOC3(C)CCOCC3)N=C2N1]	11,01 ± 0,31 RUs	Positive	0.79 °C	7.15	–	–	–	–
Cc1ncc(CNC(=O)NCc2cccc(S(=O)(=O)NC(C)C)c2)c(O)n1 [Compound 72, CC(C)NS(=O)(=O)C=1C=CC=C(CNC(=O)NCC=2C=NC(C)=NC2O)C1]	19,09 ± 5,61 RUs	Positive	0.51 °C	7.03	–	–	–	–

From PMC12316891, “A bottom-up approach to find lead compounds in expansive chemical spaces” (Communications Chemistry, 2025)
